Source: PubChem BioAssay (NCI)
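Five concentrations, 48 hours, 96-well plates. At the GI50, growth is halved. TGI is the concentration that stops growth completely.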

Legend:
Experiment in all cases: NCI tumour cell line growth inhibition, 48 h
A498 renal = test system: A498 renal
A549 NSCLC = test system: A549 NSCLC
HL-60(TB) leukemia = test system: HL-60(TB) leukemia
HT29 colon = test system: HT29 colon
NCI-H460 lung = test system: NCI-H460 lung
SK-MEL-2 melanoma = test system: SK-MEL-2 melanoma
SNB-75 CNS = test system: SNB-75 CNS

| Compound | GI50 (A498 renal) | TGI (A498 renal) | GI50 (A549 NSCLC) | TGI (A549 NSCLC) [µM] | GI50 (HL-60(TB) leukemia) | TGI (HL-60(TB) leukemia) | GI50 (HT29 colon) [µM] | TGI (HT29 colon) [µM] | GI50 (NCI-H460 lung) | TGI (NCI-H460 lung) [µM] | GI50 (SK-MEL-2 melanoma) | TGI (SK-MEL-2 melanoma) [µM] | GI50 (SNB-75 CNS) | TGI (SNB-75 CNS) [µM] |
| --- | --- | --- | --- | --- | --- | --- | --- | --- | --- | --- | --- | --- | --- | --- |
| COc1ccc(Cc2cnc(NC(=O)c3ccc4c(c3)OCCO4)s2)cc1 | 0.0159 µM | 0.0592 µM | 0.044 µM | > 100 | 0.0409 µM | > 100 µM | 0.0418 | > 55.4 | 0.0344 µM | 26 | 0.0545 µM | > 78.4 | 0.0192 µM | 44 |
| Nc1nc(N)nc(CCCc2nc(N)nc(N)n2)n1 | – | > 100 µM | – | > 100 | – | > 100 µM | – | > 100 | – | > 100 | – | > 100 | – | > 100 |
| Nc1ccc2[nH]cc(CCC(=O)O)c2c1 | – | > 100 µM | – | > 100 | – | 76.5 µM | – | > 100 | – | – | – | > 100 | – | > 100 |
| Clc1cc(Cl)cc(Nc2ccc3cc(OCCCN4CCOCC4)ccc3n2)c1 | 1.93 µM | 8.78 µM | 3.93 µM | > 100 | 2.57 µM | 5.96 µM | 1.56 | 3.74 | – | – | 2.7 µM | 6.97 | – | – |
| COC(=O)CCC1=C(CC(=O)OC)C(C)=N/C1=C\c1[nH]c(-c2ccc[nH]2)cc1OC | 10.6 µM | 23.9 µM | 3.34 µM | 13 | 2.56 µM | 14.3 µM | 0.557 | 10.3 | 3.72 µM | 13.7 | – | – | 4.9 µM | 19.1 |
| O=C1CSC(c2ccc(-c3nc4ccccc4s3)cc2)=N1 | – | – | 43.9 µM | > 100 | 18.4 µM | > 100 µM | – | – | 30.2 µM | 74.5 | 40.9 µM | > 100 | > 100 µM | > 100 |
| O=C(NO)c1ccc(CN(c2cnccn2)c2cnccn2)cc1 | 10.3 µM | 28.3 µM | 13.9 µM | 36.5 | 26.6 µM | 82.7 µM | 15.4 | 38 | 14.8 µM | 43.6 | 12.2 µM | 27 | 14.6 µM | 38.7 |
| Nc1nc(N)c2cc(CNc3ccc(C(=O)NC(CC(=O)O)C(=O)O)c(Cl)c3)ccc2n1 (stereo not drawn) | 0.05 µM | > 500 µM | 0.05 µM | > 500 | – | > 500 µM | 0.05 | > 500 | 0.05 µM | 72.6 | > 500 µM | > 500 | 71.7 µM | > 500 |
| C=CCN1CC2CON(C(=O)C(OC)(c3ccccc3)C(F)(F)F)C2C1C(C)C (stereo not drawn) | 23.5 µg/mL | 92 µg/mL | 34.6 µg/mL | – | 6.09 µg/mL | 23.3 µg/mL | – | – | 28.9 µg/mL | – | 27.8 µg/mL | – | 38.4 µg/mL | – |
| S=C1SC2=Nc3ccccc3CN2C2=NCCN12 | – | – | > 100 µM | > 100 | 89.2 µM | > 100 µM | 34.7 | > 100 | > 100 µM | > 100 | – | – | 17.4 µM | > 100 |
| COc1ccc(/C=C(/c2ccccc2)[N+](=O)[O-])cc1 | 1.01 µM | 2.24 µM | 2.13 µM | 5.12 | 2.35 µM | 6.87 µM | 2.04 | 11.3 | 2.04 µM | 4.16 | 1.92 µM | 4.44 | 1.16 µM | 2.44 |
| Clc1ccc(N=CNc2ccc(-c3nc4ccccc4o3)cc2)cc1 | – | – | 38 µM | > 100 | 38.5 µM | > 100 µM | – | – | 17.1 µM | 40.3 | 30 µM | > 100 | – | – |
| CCCCCCCCCCN1CCC(N2CCCCC2)CC1 | 9.27 µM | 21.7 µM | 3.74 µM | 12.1 | 1.1 µM | 3.77 µM | 0.606 | 4.33 | 2.99 µM | 8.03 | 2.43 µM | 6.29 | 2.06 µM | 6.12 |
| Nc1ccccc1SC1CC(=O)N(c2ccc(Cl)c(Cl)c2)C1=O (stereo not drawn) | 4.88 µM | 37.2 µM | 19.5 µM | > 100 | > 100 µM | > 100 µM | 42.1 | > 100 | 32 µM | > 100 | 26.9 µM | > 100 | 13.3 µM | 34.4 |
| O=C(O)C12CC3(C(=O)O)CC(C(=O)O)(CC(C(=O)O)(C1)C3=O)C2=O | – | > 100 µM | – | > 100 | – | – | – | > 100 | – | > 100 | – | > 100 | – | > 100 |
| CC/C=C/C/C=C/C/C=C/C/C=C/C/C=C/C/C=C/CCC(=O)Nc1ccn([C@@H]2O[C@H](CO)[C@@H](O)C2(F)F)c(=O)n1 | 0.0566 µM | 44.4 µM | 0.0369 µM | 20.4 | 0.059 µM | 9.24 µM | 0.138 | 19.5 | 0.0199 µM | 12.1 | 35.9 µM | > 66.8 | 0.863 µM | > 50.1 |
| C=C1CC[C@@H](C(C)C)C[C@@H]2[C@H]([C@H](O)C[C@]2(C)O)[C@@]2(C)CC[C@@H]1O2 | 26 µM | 42.9 µM | 17 µM | 32.7 | 22.6 µM | 57 µM | 11.8 | 26.5 | 16.4 µM | 29.9 | 23.2 µM | 50.6 | 17 µM | 38.9 |
| Cc1ccc(S(=O)(=O)NC(=O)NC2=NC(C)(C)N(c3ccc(Cl)c(Cl)c3)C(N)=N2)cc1 | – | > 100 µM | – | > 100 | – | > 100 µM | – | > 100 | – | > 100 | – | > 100 | – | > 100 |
| O=C(OCC(OC(=O)c1ccccc1)C(OC(=O)c1ccccc1)C(OC(=O)c1ccccc1)c1cnn(-c2ccccc2)n1)c1ccccc1 (stereo not drawn) | – | > 100 µM | – | > 100 | – | > 100 µM | – | > 100 | – | > 100 | – | – | – | – |
| NC(=S)N/N=C/c1cc(-c2cccc(N)c2)ccn1 | 1.61 µM | 19.1 µM | 3.11 µM | > 51.3 | 0.281 µM | – | 3.72 | > 100 | 1.07 µM | 7.27 | 3.6 µM | 43.8 | 2.15 µM | > 100 |
